In PubChem BioAssay (NCI) one finds TGI data, which are given here for 16 compounds.

Some test systems named below: BT-549 breast; M14 melanoma; NCI-H226 lung; NCI-H23 lung; OVCAR-3 ovarian; RPMI-8226 leukemia; SK-MEL-2 melanoma; U251 CNS; MALME-3M melanoma; SF-268 CNS.
Test in all cases: growth of human tumour cells (NCI), 48 h

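Exposure lasted 48 hours, with cells grown in 96-well plates and compounds tested at five concentrations. TGI: concentration producing complete growth inhibition.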

Turning to `CC1(C)OCC2OC3([C@H]4OC(C)(C)O[C@@H]4CO)OC(C)(C)OC3C2O1` (stereo partly specified), the TGI with BT-549 breast, in the test with M14 melanoma, with NCI-H226 lung, in the test with NCI-H23 lung, in the test with OVCAR-3 ovarian and in the test with RPMI-8226 leukemia was over 100 µM in each case. The TGI in the test with SK-MEL-2 melanoma and in the test on U251 CNS was over 100 µM in each case.

Take `OC1(c2ccc(Cl)cc2)c2ccc3ccccc3c2C2=N[C@H]3CCCC[C@@H]3N21` (stereo partly specified): the TGI in the test with M14 melanoma was 23 µM; in the test with MALME-3M melanoma it was 0.93 µM; in the test on NCI-H226 lung, over 100 µM; in the test with NCI-H23 lung, over 100 µM; in the test with OVCAR-3 ovarian, 21.9 µM; in the test on RPMI-8226 leukemia, 31 µM. Also, the TGI was over 100 µM with SF-268 CNS, over 100 µM in the test on SK-MEL-2 melanoma and 27.9 µM in the test with U251 CNS.

`COc1ccc(Nc2nc3c([nH]2)c(=O)n(C)c(=O)n3C)cc1`: the TGI with M14 melanoma, in the test with MALME-3M melanoma, with NCI-H23 lung, in the test on RPMI-8226 leukemia and in the test on SF-268 CNS was over 10 µM in each case.

As for `O=C(O)C(CS)N=c1c2ccccc2n(O)c2ccccc12` (stereo unspecified), the TGI in the test with M14 melanoma, in the test on MALME-3M melanoma, in the test with NCI-H226 lung, in the test with NCI-H23 lung, with OVCAR-3 ovarian and with RPMI-8226 leukemia was over 100 µM throughout. The TGI with SF-268 CNS, in the test on SK-MEL-2 melanoma and with U251 CNS was over 100 µM in each case.

`O=C(Cc1ccc([N+](=O)[O-])cc1)OCC#CCOC(=O)Cc1ccc([N+](=O)[O-])cc1`: the TGI with BT-549 breast, with M14 melanoma, with MALME-3M melanoma, with NCI-H23 lung, with OVCAR-3 ovarian and in the test with SF-268 CNS was over 10 µM throughout. The TGI in the test with SK-MEL-2 melanoma and in the test with U251 CNS was over 10 µM throughout.

Take `O=C1NC2OC(CO)C(O)C(O1)C2O` (stereo unspecified): the TGI in the test with M14 melanoma, with MALME-3M melanoma, with NCI-H226 lung, with NCI-H23 lung, in the test on OVCAR-3 ovarian and in the test with RPMI-8226 leukemia was over 100 µM in each case. The TGI with SF-268 CNS, in the test on SK-MEL-2 melanoma and in the test on U251 CNS was over 100 µM each time.

As for `CN(C)CCn1c(=O)c2ccc(NCCCN(C)CCCNc3ccc4c(=O)n(CCN(C)C)c(=O)n5c6ccc([N+](=O)[O-])cc6c(=O)c3c45)c3c(=O)c4cc([N+](=O)[O-])ccc4n(c1=O)c23`, the TGI in the test with BT-549 breast came to 0.176 µM; in the test with M14 melanoma it was 0.753 µM; in the test with MALME-3M melanoma it was 0.781 µM; in the test with NCI-H23 lung, 0.171 µM; in the test on OVCAR-3 ovarian it was 1.31 µM; in the test on SF-268 CNS, 0.733 µM. The TGI with U251 CNS amounted to 0.124 µM.

As to `NC1CNC(=O)c2c(Cl)sc(Cl)c21` (stereo unspecified), the TGI in the test on M14 melanoma, in the test with MALME-3M melanoma, in the test with NCI-H226 lung, in the test on NCI-H23 lung, with OVCAR-3 ovarian and in the test with RPMI-8226 leukemia was over 100 µM in each case. In addition, the TGI with SF-268 CNS, in the test with SK-MEL-2 melanoma and in the test with U251 CNS was over 100 µM in each case.

For the compound `Nc1ccc2[nH]c(-c3cccc(Cl)c3)cc(=O)c2c1`, the TGI with BT-549 breast was over 100 µM; in the test on M14 melanoma, over 100 µM; in the test with MALME-3M melanoma, over 100 µM; in the test with NCI-H23 lung, over 100 µM; with U251 CNS, 70.4 µM.

Regarding `COc1ccc(-c2c(C#N)c(N)nc3c2CCS(=O)(=O)c2ccccc2-3)cc1`, the TGI in the test with BT-549 breast, in the test on MALME-3M melanoma, in the test with NCI-H226 lung, in the test on NCI-H23 lung, with SF-268 CNS and with SK-MEL-2 melanoma was over 100 µM in each case. Further, the TGI in the test on U251 CNS was over 100 µM.

Take `C=CCOCCCCC(C(C)=O)C(=O)OC` (stereo unspecified): the TGI with M14 melanoma, with MALME-3M melanoma, in the test on NCI-H226 lung, in the test with NCI-H23 lung, in the test on OVCAR-3 ovarian and in the test on RPMI-8226 leukemia was over 100 µM each time. In addition, the TGI in the test with SF-268 CNS, in the test with SK-MEL-2 melanoma and in the test on U251 CNS was over 100 µM throughout.

As for `O=C(Cc1ccccc1)NN1C(=O)/C(=C\c2ccc([N+](=O)[O-])cc2)SC1=Nc1ccccc1`, the TGI with M14 melanoma, in the test with NCI-H226 lung, in the test with NCI-H23 lung, in the test with OVCAR-3 ovarian, in the test with RPMI-8226 leukemia and in the test with SF-268 CNS was over 100 µM each time. Besides, the TGI in the test on SK-MEL-2 melanoma and in the test with U251 CNS was over 100 µM throughout.

Consider `CC(C)(C)C1CCC2(CC1)c1[nH]c3ccccc3c1C1(CCC(C(C)(C)C)CC1)c1[nH]c3ccccc3c12` (stereo unspecified), for which the TGI in the test on M14 melanoma, in the test on MALME-3M melanoma, in the test on NCI-H226 lung, with NCI-H23 lung, in the test on RPMI-8226 leukemia and with SF-268 CNS was over 100 µM throughout. In addition, the TGI in the test with SK-MEL-2 melanoma and in the test on U251 CNS was over 100 µM in each case.

Regarding `COc1cc(/C=C\C(=O)O)ccc1OCc1ccccc1`, the TGI in the test on M14 melanoma, with MALME-3M melanoma, in the test on NCI-H23 lung, in the test with OVCAR-3 ovarian, in the test with RPMI-8226 leukemia and with SF-268 CNS was over 100 µM throughout. For the same compound, the TGI with SK-MEL-2 melanoma and in the test with U251 CNS was over 100 µM each time.

Take `O=c1c(-c2ccc(Cl)cc2)nnc2n(Cc3ccccc3)c3ccccc3n12`: the TGI in the test on BT-549 breast is 57.2 µM; with M14 melanoma, over 100 µM; in the test with MALME-3M melanoma, over 100 µM; with NCI-H226 lung, over 100 µM; in the test on NCI-H23 lung, over 100 µM; with SF-268 CNS, over 100 µM. The TGI in the test on SK-MEL-2 melanoma was over 100 µM; with U251 CNS, 72.7 µM.

As for `COC(=O)C1CC2(c3ccccc3)C(=O)c3ccccc3N2O1` (stereo unspecified), the TGI was over 100 µM in the test with M14 melanoma; over 100 µM in the test on MALME-3M melanoma; over 100 µM with NCI-H226 lung; over 100 µM with NCI-H23 lung; over 100 µM with OVCAR-3 ovarian; 57 µM with RPMI-8226 leukemia. Moreover, the TGI with SF-268 CNS, in the test with SK-MEL-2 melanoma and in the test with U251 CNS was over 100 µM throughout.
